The target of the test is T1, squalene synthetase (Rattus norvegicus, UniProt Q02769).
T1 construct: Rat liver microsomal preparation; from tissue; host or cells: liver microsomes of male rats (100,000 x g pellet)
T1 sequence (Q02769 1-416): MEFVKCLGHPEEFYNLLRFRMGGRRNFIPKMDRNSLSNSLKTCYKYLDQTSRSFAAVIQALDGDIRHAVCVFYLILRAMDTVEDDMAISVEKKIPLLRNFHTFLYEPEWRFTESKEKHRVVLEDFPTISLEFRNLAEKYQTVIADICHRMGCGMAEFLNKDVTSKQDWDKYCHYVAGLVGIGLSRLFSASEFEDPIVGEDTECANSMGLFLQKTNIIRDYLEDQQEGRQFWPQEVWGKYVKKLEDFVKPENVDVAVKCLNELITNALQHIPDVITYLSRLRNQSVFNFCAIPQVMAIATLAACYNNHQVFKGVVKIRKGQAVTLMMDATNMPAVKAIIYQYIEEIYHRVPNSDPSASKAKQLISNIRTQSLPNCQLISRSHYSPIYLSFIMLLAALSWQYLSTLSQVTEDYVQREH
The test can be described thus: Squalene synthetase inhibition assay in vitro (rat liver microsomal preparation, 3H-FPP). In kind it is biochemical. As to conditions: rat liver microsomal enzyme, 3H-FPP 10 μM final conc.; for SQUALENE SYNTHETASE INHIBITION % max: maximal inhibition; for IC50: 10 min incubation at 37° C. Here is the method: Squalene synthease inhibition assay in vitro
a) Rat liver microsomal preparation
Male rats weighing 200 to 300 g were decapitated and the liver removed and placed in 10 ml icecold 0.25M sucrose, 2 mM EDTA and 50 mM Tris, HCl buffer pH 7.4. The liver was homogenized in 3×volume buffer relative to weight using a glass teflon Potter-Elvehjem homogenizer set to 1000 rpm.
The homogenate was then centrifuged for 15 min. at 12,000×g at 4° C. The resultant supernatant was gently decanted into 10 ml ultracentrifuge vials and treated at 100,000×g for 60 min. at 4° C. The microsomal pellet was resuspended in a final volume of 1 ml icecold 0.1M phosphate buffer pH 7.4 per gram liver tissue by gentle homogenization in a glass Potter-Elvehjem at 800 rpm. Aliquots of 0.5 ml (approx. 20 mg/ml protein) was stored at -80° C. until further use in the squalene synthetase inhibition assay.
To begin the assay, 20 μl of the compound of this invention or vehicle solution is added to each 16×150 screw-cap culture tube on ice. Then 580 μl of N2 flushed assay buffer is pipetted into each tube. 100 μl of cofactor is next added to each tube, followed by 1 00 μl of a dilution of microsomal enzyme (approximately 80 μg protein). The tubes are preincubated for 10 min. at 37° C., and 200 μl of the ^3 H-FPP (200,000 dpm, 10 μM final conc.) is added to each tube at two second intervals. The tubes are then incubated for exactly 10 min., shaking at 150 oscillations per min. After the 10 min. incubation, the reaction is stopped by the addition of 1 ml of 15% KOH in ethanol, and the tubes are incubated for 30 min. in a 65° C. water bath for saponification of lipids and solubilization of proteins. The tubes are cooled on ice for five min. The samples are next extracted with 5 ml of petroleum ether by shaking for 10 min. at low speed on a metabolic shaker. Each lower aqueous layer is frozen in a dry ice/alcohol bath (2-propanol/methanol, 1:1), and each organic layer is poured into another set of 16 ×150 screw-top culture tubes containing 2 ml of deionized water. Each ether layer is washed by vortexing each tube for 5 sec. The aqueous layers are again frozen in the dry ice/alcohol bath, and the ether is poured into scintillation vials. 10 ml of AquaSol® is next added to each vial, and the vials are counted for 5 min. in a scintillation counter. Percent inhibitions are calculated from the counts obtained.

Consider 7 molecules from US5750538A, “Method of treating hypercholesterolemia and related disorders” (Novo Nordisk A/S, priority 1996, dated 1998).

For orientation: IC50 means the midpoint of a concentration-inhibition curve. A lower IC50 goes with inhibition by little substance.

Take `CCCCCCCSc1nsnc1C1CN2CCC1CC2` (centres unmarked): the “SQUALENE SYNTHETASE INHIBITION % max” value is on record as 92% and the IC50 is 890 nM.

As to `c1ccc(CCCSc2nsnc2C2CN3CCC2CC3)cc1` (centres unmarked), the “SQUALENE SYNTHETASE INHIBITION % max” value is 89% and half-maximal inhibition (IC50) was put at 900 nM.

Turning to `c1ccc(Oc2ccc(COc3nsnc3C3CN4CCC3CC4)cc2)cc1` (centres unmarked), the “SQUALENE SYNTHETASE INHIBITION % max” value turned out to be 83% and half-maximal inhibition (IC50) was put at 300 nM.

As to `c1ccc(-c2ccc(COc3nsnc3C3CN4CCC3CC4)cc2)cc1` (centres unmarked), the “SQUALENE SYNTHETASE INHIBITION % max” value worked out at 60% and the IC50 was 3900 nM.

`c1ccc(CCCSc2nsnc2[C@H]2CN3CC[C@@H]2C3)cc1` (relative stereo): the “SQUALENE SYNTHETASE INHIBITION % max” value is 55% and the IC50 was 12400 nM.

Turning to `c1ccc(CCCSc2nsnc2[C@H]2CN3CCC[C@@H]2C3)cc1` (single isomer, unassigned), the “SQUALENE SYNTHETASE INHIBITION % max” value is 72% and the IC50 was 5100 nM.

Regarding `c1ccc(CCCSc2nsnc2[C@@H]2CN3CCC[C@@H]2C3)cc1` (single isomer, unassigned), the “SQUALENE SYNTHETASE INHIBITION % max” value stood at 80% and the IC50 turned out to be 1100 nM.
